Our source for the logD values is the SangsterLogP compilation.

What is called logD is lipophilicity at a set pH, counting ionised and neutral species. The low end stands for lower lipophilicity, the high end for higher lipophilicity.

The conditions of the data set: pH 7.4.
Compound `N#CC1(NC(=O)[C@@H]2CCCC[C@H]2C(=O)N2CCc3[nH]c4ccc(F)cc4c3C2)CC1` displayed a logD of 3. Turning to `CCCN(c1cccnc1)P(=O)(c1ccccc1)c1ccccc1`, the logD was 2.6. `COc1cc(N2CC3COCC(C2)N3)ccc1Nc1ncc(Cl)c(-c2cnc3ccccn23)n1`: the logD was 3.

`Cc1ccc(-c2cccc(-c3nn[nH]n3)c2)cc1` displayed a logD of 1.3. `CN1CCC(c2cc(N3CCOCC3)nc(-c3cccc4[nH]ccc34)n2)(S(C)(=O)=O)CC1` had a logD of 1.9. In the case of `Cc1nn(C)c2ccc(N3CCN(C(=O)[C@@H]4CCCC[C@H]4C(=O)NC4(C#N)CC4)[C@H](C)C3)cc12`, the logD was 2.8. Compound `CCCSc1ncccc1C(=O)NC1CCCCC1` returned a logD of 3.24. For the compound `C[C@@H]1COCCN1c1cc(C2(S(C)(=O)=O)CC2)nc(-c2cccc3[nH]ccc23)n1`, the logD was determined as 2.7. `COc1cnccc1COc1cnc(N2CCN(C(=O)OC(C)(C)C)CC2)nc1` yielded a pH-dependent lipophilicity (logD) of 3.8. On to `Cc1ncc(-c2ccnc(Nc3ccc(N4CCOCC4)cc3)n2)n1C(C)C`, for which the logD was 2.88.

Turning to `CC(C)c1nc(N2CCN(c3ncc(OCc4ccncc4C#N)cn3)[C@H](C)C2)no1`, the logD is 3.3.

On to `C[C@@H](c1ncncc1F)[C@](O)(Cn1cncn1)c1ccc(F)cc1F`, for which the logD is 1.7. For the compound `CC(C)(C#N)c1cnc(N2CCN(C(=O)[C@@H]3CCCC[C@H]3C(=O)NC3(C#N)CC3)CC2)s1`, the logD turned out to be 1.9. For the compound `COc1ccc(N(C(=O)c2ccoc2Cl)C(C(=O)NC[C@@H](C)O)c2ccccc2F)c(OC)c1` (stereo partly specified), the logD is 2.36. Turning to `COc1cc(OC)c(S(=O)(=O)N2c3ccccc3CCC2C)cc1NC(C)=O` (stereo unspecified), the log distribution coefficient (logD) was 1.97.

In the case of `COc1cc(OC)c(S(=O)(=O)NCc2ccccc2N2CCC(CO)CC2)cc1NC(C)=O`, the logD is 1.03.

Consider `Cc1sc(N2CCN(C(=O)[C@@H]3CCCC[C@H]3C(=O)NC3(C#N)CC3)CC2)nc1C(F)(F)F`, for which the pH-dependent lipophilicity (logD) worked out at 2.87. Then `CC(C)(C)OC(=O)N1CCN(c2ncc(OCc3ccc(S(C)(=O)=O)cc3)nn2)CC1`, with 2.93; and `CC(C)Oc1cc(OCCN2CCOCC2)cc2ncnc(Nc3c(Cl)ccc4c3OCO4)c12`, with 3.68; and `COc1ccc(N(C(=O)c2ccccc2)C(C(=O)NC[C@@H](C)O)c2ccccc2F)c(OC)c1` (stereo partly specified), with 2.55.

Compound `Cc1ncc(-c2ccnc(Nc3ccc(N4CCN(S(C)(=O)=O)CC4)cc3)n2)n1C(C)C` came in with a logD of 2.57.

For `Cc1ncc(-c2nc(Nc3ccc(N4CCN(C(=O)CO)CC4)cc3)ncc2F)n1C(C)C`, the logD is 2.19. As to `Cc1noc2cc(N3CCN(C(=O)[C@@H]4CCCC[C@H]4C(=O)NC4(C#N)CC4)[C@H](C)C3)ccc12`, the logD was 2.67. `COCc1ccoc1C(=O)N(c1ccc(OC)cc1OC)C(C(=O)NC[C@@H](C)O)c1ccccc1F` (stereo partly specified) showed a logD of 1.98. `CC(C)(C)OC(=O)N1CCN(c2ccc(OCc3ccc(S(C)(=O)=O)cc3)nn2)CC1`: the logD amounted to 2.8. Turning to `CCCSc1c(C(=O)NC2CCCCC2)cnn1C`, the logD worked out at 2.99.

`COc1ccc(N2CCN(C(=O)[C@@H]3CCCC[C@H]3C(=O)NC3(C#N)CC3)[C@H](C)C2)nc1OC` came in with a logD of 2.3.

On to `CC1(C)COCc2sc(N3CCN(C(=O)[C@@H]4CCCC[C@H]4C(=O)NC4(C#N)CC4)CC3)nc21`, for which the logD is 2.4. Compound `O=c1cc(O)c2c(=O)n(-c3ccccc3)c3ccccc3c2o1` showed a logD of 0.96.

In turn, `CCOc1cccc2c3c([nH]c12)CCN(C(=O)[C@@H]1CCCC[C@H]1C(=O)NC1(C#N)CC1)C3` showed a logD of 3.1. Take `Cc1cc(COc2cnc(N3CCN(C(=O)OC(C)(C)C)CC3)nc2)ccn1`: the logD came to 3.7.

With `CC(C)(C)c1cc2nc3c(c(=O)n2[nH]1)CN(Cc1ccccc1)C3=O`, the log distribution coefficient (logD) was 1.9.

In turn, `NS(=O)(=O)c1ccc(Nc2nccc(-c3cnc4ccccn34)n2)cc1` came in with a logD of 2.7. In turn, `C[C@@H]1CN(c2ccccc2)CCN1C(=O)[C@@H]1CCCC[C@H]1C(=O)NC1(C#N)CC1` came in with a logD of 2.35.

`CC(=O)NC1CN(c2ccc(Nc3ncc(F)c(-c4cnc(C)n4C(C)C)n3)cc2)C1` registered a logD of 2.76.

In turn, `Cc1nnc(C)c2cc(N3CCN(C(=O)[C@@H]4CCCC[C@H]4C(=O)NC4(C#N)CC4)[C@H](C)C3)ccc12` displayed a logD of 1.93. Compound `COc1ccc(N2CCN(C(=O)[C@@H]3CCCC[C@H]3C(=O)NC3(C#N)CC3)CC2)cc1OC` had a pH-dependent lipophilicity (logD) of 1.4. The compound `O=c1cc(O)c2c(=O)n(Cc3ccccc3)c3ccccc3c2o1` came in with a logD of 1.97.

In the case of `O=C(Nc1cccc2cccnc12)C1CCC(N2C(=O)[C@@H]3[C@@H]4CC[C@@H](C4)[C@@H]3C2=O)CC1` (stereo partly specified), the logD was determined as 3.94. Compound `CC(C)c1ccc2[nH]c3c(c2c1)CN(C(=O)[C@@H]1CCCC[C@H]1C(=O)NC1(C#N)CC1)CC3` displayed a log distribution coefficient (logD) of 4.1. `CS(=O)(=O)c1ccc(N2CCN(C(=O)[C@@H]3CCCC[C@H]3C(=O)NCC#N)CC2)cc1` registered a logD of 0.67.

For `COc1c/c(=C2\C=c3ccccc3=N2)[nH]/c1=C\c1[nH]c(C)cc1C`, the logD worked out at 2.55.

Compound `COc1ccc(N2CCN(C(=O)[C@@H]3CCCC[C@H]3C(=O)NCC#N)CC2)cc1` came in with a log distribution coefficient (logD) of 1.6. `CN(C(=O)Cc1ccc(-n2cnnn2)cc1)[C@H]1CCN(Cc2ccc(C(F)(F)F)cc2)C[C@H]1F` yielded a logD of 3.3. In the case of `CS(=O)(=O)Cc1cc(N2CCOCC2)nc(-c2cccc3[nH]ccc23)n1`, the logD came to 1.7.

Compound `CCn1c(=O)c2c(O)cc(=O)oc2c2ccccc21` registered a logD of 1.13. In turn, `COc1cc(OC)c(S(=O)(=O)N2c3ccccc3Oc3ccccc32)cc1NC(=O)Cc1ccnc(F)c1` came in with a logD of 3.37. As to `N#CC1(NC(=O)[C@@H]2CCCC[C@H]2C(=O)N2CCc3[nH]c4c(OC(F)(F)F)cccc4c3C2)CC1`, the logD is 4.01. Consider `Cc1cc(C(C)Nc2ccccc2)c2nc(N3CCOCC3)cc(=O)n2c1` (stereo unspecified), for which the logD was 3.6. Regarding `Cc1ncc(-c2nc(Nc3ccc(N4CCOCC4)cc3)ncc2F)n1C(C)C`, the logD came out at 3.01. `Cc1ncc(-c2ccnc(Nc3ccc(S(=O)(=O)CCCN(C)C)cc3)n2)n1C(C)C` gave a logD of 1.32.
